From publication PMC11012124, “Synthesis of Novel Triazine-Based Chalcones and 8,9-dihydro-7H-pyrimido[4,5-b][1,4]diazepines as Potential Leads in the Search of Anticancer, Antibacterial and Antifungal Agents” (International Journal of Molecular Sciences, 2024)
≈ marks a conversion by molar mass, not a printed value.

Tests used:
OVCAR-4 = assay: cells; details: Homo sapiens, OVCAR-4, 48 h; for CC50: read-out: LC50
HOP-62 = assay: cells; details: Homo sapiens, HOP-62, 48 h; for CC50: read-out: LC50
SF-295 = assay: cells; details: Homo sapiens, SF-295, 48 h; for CC50: read-out: LC50
HT29 = assay: cells; details: Homo sapiens, HT-29, 48 h; for CC50: read-out: LC50
NCI-H322M = assay: cells; details: Homo sapiens, 48 h; for CC50: read-out: LC50
NCI-H522 = assay: cells; details: Homo sapiens, NCI-H522, 48 h; for CC50: read-out: LC50
NCI/ADR-RES = assay: cells; details: Homo sapiens, 48 h; for CC50: read-out: LC50
U251 = assay: cells; details: Homo sapiens, U-251, 48 h; for GI50: U251, 48 h; for CC50: read-out: LC50
MDA-MB-468 = assay: cells; details: Homo sapiens, MDA-MB-468, 48 h; for CC50: read-out: LC50
COLO 205 = assay: cells; details: Homo sapiens, COLO 205, 48 h; for CC50: read-out: LC50
DU-145 = assay: cells; details: Homo sapiens, DU-145, 48 h; for CC50: read-out: LC50
[1] = test system: M. tuberculosis ATCC 27294; assay: Antitubercular broth microdilution MIC; assay type: cell-based; details: Mycobacterium tuberculosis; M. tuberculosis ATCC 27294 (H37Rv); read-out: Minimum inhibitory concentration (MIC)
UACC-62 = assay: cells; details: Homo sapiens, UACC-62, 48 h; for CC50: read-out: LC50
KM12 = assay: cells; details: Homo sapiens, KM12, 48 h; for CC50: read-out: LC50
HCT-15 = assay: cells; details: Homo sapiens, HCT-15, 48 h; for CC50: read-out: LC50
SK-MEL-5 = assay: cells; details: Homo sapiens, SK-MEL-5, 48 h; for CC50: read-out: LC50
CAKI-1 = assay: cells; details: Homo sapiens, CAKI-1, 48 h; for CC50: read-out: LC50
SNB-19 = assay: cells; details: Homo sapiens, SNB-19, 48 h; for CC50: read-out: LC50
SF-268 = assay: cells; details: Homo sapiens, SF-268, 48 h; for CC50: read-out: LC50
SK-MEL-2 = assay: cells; details: Homo sapiens, SK-MEL-2, 48 h; for CC50: read-out: LC50
786-0 = assay: cells; details: Homo sapiens, 786-0, 48 h; for CC50: read-out: LC50
OVCAR-3 = assay: cells; details: Homo sapiens, OVCAR-3, 48 h; for CC50: read-out: LC50
T-47D = assay: cells; details: Homo sapiens, T47D, 48 h; for CC50: read-out: LC50
UO-31 = assay: cells; details: Homo sapiens, UO-31, 48 h; for CC50: read-out: LC50
SR = assay: cells; details: Homo sapiens, 48 h
[2] = test system: N. gonorrhoeae ATCC 49226; assay: MIC on GC agar plates; assay type: cell-based, Neisseria gonorrhoeae; details: Neisseria gonorrhoeae, ATCC49226, read-out: MIC
In short: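 N. gonorrhoeae (1 × 10^4 CFU) was spotted onto IsoVitaleX-supplemented (1%) GC agar containing graded compound levels. The lowest inhibitory concentration was recorded as the MIC, with oxidase testing used to verify growth, and each assay was done in duplicate on at least two separate occasions.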

Question: For `CN(C)c1nc(NCCNS(=O)(=O)c2ccc(C(=O)/C=C/c3ccc(C(F)(F)F)cc3)cc2)nc(Nc2ccc(F)cc2)n1` [24g], which GI50 (OVCAR-4) is on record?
Answer: 8.78 µM

Question: What about the CC50 (OVCAR-4) of the same compound?
Answer: 23.1 µM

Question: And the GI50 (HOP-62)?
Answer: 13.6 µM

Question: What about the CC50 (HOP-62) of the same compound?
Answer: 27.7 µM

Question: What about the GI50 (SF-295) of the same compound?
Answer: 11.3 µM

Question: And the CC50 (SF-295)?
Answer: 23.5 µM

Question: And the GI50 (HT29)?
Answer: 1.91 µM

Question: What about the CC50 (HT29) of the same compound?
Answer: 3.95 µM

Question: What about the GI50 (NCI-H322M) of the same compound?
Answer: 11.6 µM

Question: What about the CC50 (NCI-H322M) of the same compound?
Answer: 24.3 µM

Question: What about the GI50 (NCI-H522) of the same compound?
Answer: 11.2 µM

Question: And the CC50 (NCI-H522)?
Answer: 24.7 µM

Question: What about the GI50 (NCI/ADR-RES) of the same compound?
Answer: 10.7 µM

Question: And the CC50 (NCI/ADR-RES)?
Answer: 23.7 µM

Question: What about the GI50 (U251) of the same compound?
Answer: 3.42 µM

Question: And the CC50 (U251)?
Answer: 13 µM

Question: What about the GI50 (MDA-MB-468) of the same compound?
Answer: 4.53 µM

Question: And the CC50 (MDA-MB-468)?
Answer: 17 µM

Question: What about the GI50 (COLO 205) of the same compound?
Answer: 11.2 µM

Question: And the CC50 (COLO 205)?
Answer: 24.8 µM

Question: And the GI50 (DU-145)?
Answer: 11.2 µM

Question: What about the CC50 (DU-145) of the same compound?
Answer: 24 µM

Question: What about the MIC [1] of the same compound?
Answer: 50 µg/mL (≈ 79.4 µM)

Question: What about the GI50 (UACC-62) of the same compound?
Answer: 6.24 µM

Question: What about the CC50 (UACC-62) of the same compound?
Answer: 19.4 µM

Question: And the GI50 (KM12)?
Answer: 2.38 µM

Question: What about the CC50 (KM12) of the same compound?
Answer: 6 µM

Question: What about the GI50 (HCT-15) of the same compound?
Answer: 3.22 µM

Question: And the CC50 (HCT-15)?
Answer: 11.9 µM

Question: And the GI50 (SK-MEL-5)?
Answer: 10.4 µM

Question: What about the CC50 (SK-MEL-5) of the same compound?
Answer: 22.2 µM

Question: And the GI50 (CAKI-1)?
Answer: 6.46 µM

Question: What about the CC50 (CAKI-1) of the same compound?
Answer: 19.7 µM

Question: And the GI50 (SNB-19)?
Answer: 12 µM

Question: What about the CC50 (SNB-19) of the same compound?
Answer: 24.3 µM

Question: And the GI50 (SF-268)?
Answer: 7.71 µM

Question: What about the CC50 (SF-268) of the same compound?
Answer: 22.5 µM

Question: What about the GI50 (SK-MEL-2) of the same compound?
Answer: 9.45 µM

Question: What about the CC50 (SK-MEL-2) of the same compound?
Answer: 22.3 µM

Question: What about the GI50 (786-0) of the same compound?
Answer: 10.6 µM

Question: And the CC50 (786-0)?
Answer: 22.7 µM

Question: What about the GI50 (OVCAR-3) of the same compound?
Answer: 2.04 µM

Question: What about the CC50 (OVCAR-3) of the same compound?
Answer: 5.61 µM

Question: What about the GI50 (T-47D) of the same compound?
Answer: 5.16 µM

Question: And the CC50 (T-47D)?
Answer: 19.6 µM

Question: What about the GI50 (UO-31) of the same compound?
Answer: 6.41 µM

Question: What about the CC50 (UO-31) of the same compound?
Answer: 19.9 µM

Question: For `Nc1nc(N)c2c(n1)NC(c1ccc(F)cc1)CC(c1ccc(Nc3nc(NCCO)nc(Nc4ccc(Cl)cc4)n3)cc1)=N2` (stereo not shown) [33f], which GI50 (OVCAR-4) is on record?
Answer: 1.93 µM

Question: What about the CC50 (OVCAR-4) of the same compound?
Answer: > 100 µM

Question: What about the GI50 (HOP-62) of the same compound?
Answer: 1.77 µM

Question: What about the CC50 (HOP-62) of the same compound?
Answer: 11.7 µM

Question: What about the GI50 (SF-295) of the same compound?
Answer: 1.96 µM

Question: What about the CC50 (SF-295) of the same compound?
Answer: 7.15 µM

Question: What about the GI50 (HT29) of the same compound?
Answer: 1.42 µM

Question: And the CC50 (HT29)?
Answer: 7.01 µM

Question: What about the GI50 (NCI-H322M) of the same compound?
Answer: 2.43 µM

Question: And the CC50 (NCI-H322M)?
Answer: 33.5 µM

Question: And the GI50 (NCI-H522)?
Answer: 1.43 µM

Question: And the CC50 (NCI-H522)?
Answer: 6.16 µM

Question: What about the GI50 (NCI/ADR-RES) of the same compound?
Answer: 7.73 µM

Question: And the CC50 (NCI/ADR-RES)?
Answer: > 100 µM

Question: What about the GI50 (U251) of the same compound?
Answer: 1.37 µM

Question: And the CC50 (U251)?
Answer: 5.43 µM

Question: What about the GI50 (MDA-MB-468) of the same compound?
Answer: 1.48 µM

Question: What about the CC50 (MDA-MB-468) of the same compound?
Answer: 6.7 µM

Question: What about the GI50 (COLO 205) of the same compound?
Answer: 1.49 µM

Question: And the CC50 (COLO 205)?
Answer: 5.8 µM

Question: And the GI50 (DU-145)?
Answer: 1.75 µM

Question: What about the CC50 (DU-145) of the same compound?
Answer: 7 µM

Question: What about the GI50 (UACC-62) of the same compound?
Answer: 1.96 µM

Question: And the GI50 (KM12)?
Answer: 1.68 µM

Question: What about the CC50 (KM12) of the same compound?
Answer: 8.22 µM

Question: And the GI50 (HCT-15)?
Answer: 1.03 µM

Question: What about the CC50 (HCT-15) of the same compound?
Answer: 7.87 µM

Question: And the GI50 (SR)?
Answer: 0.672 µM

Question: What about the CC50 (SR; read-out: LC50) of the same compound?
Answer: > 100 µM

Question: And the GI50 (SK-MEL-5)?
Answer: 1.46 µM

Question: What about the CC50 (SK-MEL-5) of the same compound?
Answer: 5.3 µM

Question: And the GI50 (CAKI-1)?
Answer: 6.14 µM

Question: And the CC50 (CAKI-1)?
Answer: > 100 µM

Question: What about the GI50 (SNB-19) of the same compound?
Answer: 1.76 µM

Question: What about the GI50 (SF-268) of the same compound?
Answer: 2.85 µM

Question: And the CC50 (SF-268)?
Answer: 76 µM

Question: What about the GI50 (SK-MEL-2) of the same compound?
Answer: 1.67 µM

Question: What about the CC50 (SK-MEL-2) of the same compound?
Answer: 5.75 µM

Question: And the GI50 (786-0)?
Answer: 1.36 µM

Question: What about the CC50 (786-0) of the same compound?
Answer: 7.12 µM

Question: And the GI50 (OVCAR-3)?
Answer: 1.58 µM

Question: And the CC50 (OVCAR-3)?
Answer: 6.82 µM

Question: And the MIC [2]?
Answer: 1 µg/mL (≈ 1.59 µM)

Question: What about the GI50 (T-47D) of the same compound?
Answer: 1.27 µM

Question: What about the CC50 (T-47D) of the same compound?
Answer: 8.09 µM

Question: And the GI50 (UO-31)?
Answer: 3.07 µM

Question: And the CC50 (UO-31)?
Answer: > 100 µM

Question: Which results are given for `Nc1nc(N)c2c(n1)NC(c1ccccc1)CC(c1ccc(Nc3nc(NCCO)nc(Nc4ccc(Cl)cc4)n3)cc1)=N2` (stereo not shown) [33a]?
Answer: GI50 (OVCAR-4): 1.72 µM; CC50 (OVCAR-4): 8.19 µM; GI50 (HOP-62): 1.74 µM; CC50 (HOP-62): 6.07 µM; GI50 (SF-295): 1.57 µM; CC50 (SF-295): 5.63 µM; GI50 (HT29): 1.77 µM; CC50 (HT29): 6.28 µM; GI50 (NCI-H322M): 1.63 µM; CC50 (NCI-H322M): 5.67 µM; GI50 (NCI-H522): 1.79 µM; CC50 (NCI-H522): 6.77 µM; GI50 (NCI/ADR-RES): 4.33 µM; CC50 (NCI/ADR-RES): > 100 µM; GI50 (U251): 1.53 µM; CC50 (U251): 5.84 µM; GI50 (MDA-MB-468): 1.51 µM; CC50 (MDA-MB-468): 5.93 µM; GI50 (COLO 205): 1.79 µM; CC50 (COLO 205): 6.09 µM; GI50 (DU-145): 1.8 µM; CC50 (DU-145): 6.34 µM; GI50 (UACC-62): 1.84 µM; CC50 (UACC-62): 6 µM; GI50 (KM12): 1.9 µM; CC50 (KM12): 6.61 µM; GI50 (HCT-15): 1.38 µM; CC50 (HCT-15): 5.87 µM; GI50 (SR): 0.55 µM; GI50 (SK-MEL-5): 1.42 µM; CC50 (SK-MEL-5): 5.21 µM; GI50 (CAKI-1): 2.3 µM; CC50 (CAKI-1): 24.8 µM; GI50 (SNB-19): 1.58 µM; CC50 (SNB-19): 5.64 µM; GI50 (SF-268): 1.87 µM; GI50 (SK-MEL-2): 1.38 µM; CC50 (SK-MEL-2): 5.6 µM; GI50 (786-0): 1.63 µM; CC50 (786-0): 5.8 µM; MIC [2]: 1 µg/mL (≈ 1.64 µM); GI50 (T-47D): 1.52 µM; CC50 (T-47D): 7.29 µM; GI50 (UO-31): 1.87 µM; CC50 (UO-31): 9.83 µM
